Experimental findings from patent US20240261274A1, “TREATMENT OF MYC-DRIVEN CANCERS WITH GSPT1 DEGRADERS” (MONTE ROSA THERAPEUTICS, INC., priority 2021, published 2024) are described below.

The subject of assay [1] is MDA-MB-468, MDA-MB-231, MDA-MB-436 and CAL51 triple negative breast cancer models. The assay can be described thus: In vivo anti-tumor activity of compound 8 in triple negative breast cancer models. Details: species or system mice. Particulars: i.p. 37 and 75 mpk, 21 continuous days; all four models. The procedure:
Shown are representative examples of triple negative breast cancer models with high 4EBP1 marker expression levels. Tumor growth was measured in MDA-MB-468 (ATCC HTB-132) (A), MDA-MB-231 (ATCC HTB-26) (B), MDA-MB-436 (ATCC HTB-130) (C) and CAL51 (DSMZ-ACC-302) (D) as indicated. compound 8 was dosed i.p at 37 and 75 mpk for 21 continuous days and tumor size measured every three days. Vehicle (black line), compound 8 dosed daily at 37 mpk (light grey) and 75 mpk (dark grey). X-axis represents days; y-axis represents the tumor volume (mm^3).

The target in the next assay is GSPT1 (Homo sapiens, UniProt P15170+Q96SW2). The assay can be described thus: GSPT1 degradation by western blotting in NSCLC cell lines (compound 210). Type of assay: cell-based. Details: endogenous in cells. Particulars: NCI-H1155 and ABC-1 cells, six hours. The method, then: The anti-proliferative activity of compound 210 was tested on representative N-Myc high and N-Myc low cell lines (NCI-H1155, ABC-1 and EBC-1, NCI-H2023, respectively) following treatment with compound for 72 hours. Cells were sub-cultures as recommended by the providers (ATCC, DSMZ) and incubated at 37° C., 5% CO2. All cells were authenticated and confirmed by Short Tandem Repeat (STR) profiling. Briefly, cells were seeded to the appropriate density to allow logarithmic growth over the assay period in 96-well opaque-walled clear bottom plates (from Corning, Cat. No. 3903, Lot. No. 16419061; 100 μL total volume) and incubated overnight. […] Cell viability was assessed using the CellTiter-Glo assay kit as recommended by the Manufacturer (Promega, Cat. No. G7558, Lot. No. 0000385738) and measurements performed on the EnSpire multimode plate reader (Perkin Elmer). EC50 values were determined using Prism8 (GraphPad) and the asymmetric (five-parameter) equation and least squares fit. GSPT1 levels were assessed in the NCI-H1155 and ABC-1 cell lines by densitometry analysis following treatment with compound 210 for 6 hours and western blotting analysis. […] For chemiluminescence and colorimetric signals “optimal automatic exposure” settings (3×3 binning) were employed while fluorescence was detected using 1-4 seconds exposure time to achieve best GAPDH signals and avoid overexposure. […]
(In general: A western blot detects proteins with antibodies after separation by electrophoresis.)

For assay [2], the system named is MM1 S multiple myeloma cell line derived xenograft. The experiment in a line: MM1 S multiple myeloma CDX efficacy study. Type of assay: in vivo, immunodeficient mice. Particulars: oral daily 1, 3 and 10 mg/kg. The procedure: Cell line derived xenograft (CDX) models were produced for the MM1 S multiple myeloma (MM) cell line in immunodeficient mice. Oral dosing of Compound 345 was performed daily at doses of 1 mg/kg, 3 mg/kg, and 10 mg/kg as well as lenalidomide at 50 mg/kg and a no-drug vehicle control. Tumor volumes were measured (mm^3) at regular intervals over the course of 20 to 50 days depending on the animal.
In vivo efficacy study: NCI-H1155, MM1 S, WSU-DLCL2, DOHH-2 cells were maintained in vitro in individual medium and conditions as recommended by the providers and incubated at 37° C. in an atmosphere of 5% CO2 in air. 0.5 million (NCI-H1155), 10 million (MM1S) or 5 million (WSU-DLCL2 and DOHH-2) cells were resuspended in typically 0.1-0.2 mL of PBS with Matrigel (50:50) and were inoculated into 6-8 weeks old BALB/c nude female (NCI-H115, WSU-DLCL2), NOD/SCID (MM1S) or CB-17SCID (DOHH-2) mice and allowed to grow to 150-200 mm3 in size. Mice were dosed orally (PO) and daily (QD) with either vehicle or Compound 345 typically at 1.0 mg/kg, 3.0 mg/kg and 10 mg/kg. […] Tumor volumes were measured at least twice weekly during the treatment period using a caliper and the volume was expressed in mm3 using the formula: V=0.5 a×b2 where a and b were the long and short diameters of the tumor, respectively. […] Data are expressed as the mean±SEM. All data was analyzed using GraphPad Prism 8.1.2 (GraphPad).

Each structure is given as a SMILES string.

Sequence of GSPT1 (P15170 whole entry): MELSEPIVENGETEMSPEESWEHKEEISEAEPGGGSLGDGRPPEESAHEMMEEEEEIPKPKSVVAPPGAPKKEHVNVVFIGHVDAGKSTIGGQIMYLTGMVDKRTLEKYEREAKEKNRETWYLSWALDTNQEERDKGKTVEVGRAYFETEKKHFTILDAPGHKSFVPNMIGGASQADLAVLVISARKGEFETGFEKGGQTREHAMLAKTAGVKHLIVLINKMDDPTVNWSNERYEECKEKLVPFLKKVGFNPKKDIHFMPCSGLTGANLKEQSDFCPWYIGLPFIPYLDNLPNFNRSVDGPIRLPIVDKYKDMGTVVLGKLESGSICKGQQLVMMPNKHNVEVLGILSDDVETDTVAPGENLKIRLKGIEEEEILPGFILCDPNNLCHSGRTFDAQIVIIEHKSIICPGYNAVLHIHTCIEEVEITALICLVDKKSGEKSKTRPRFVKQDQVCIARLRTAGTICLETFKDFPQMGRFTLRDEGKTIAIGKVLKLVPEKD
Sequence of GSPT1 (Q96SW2 whole entry): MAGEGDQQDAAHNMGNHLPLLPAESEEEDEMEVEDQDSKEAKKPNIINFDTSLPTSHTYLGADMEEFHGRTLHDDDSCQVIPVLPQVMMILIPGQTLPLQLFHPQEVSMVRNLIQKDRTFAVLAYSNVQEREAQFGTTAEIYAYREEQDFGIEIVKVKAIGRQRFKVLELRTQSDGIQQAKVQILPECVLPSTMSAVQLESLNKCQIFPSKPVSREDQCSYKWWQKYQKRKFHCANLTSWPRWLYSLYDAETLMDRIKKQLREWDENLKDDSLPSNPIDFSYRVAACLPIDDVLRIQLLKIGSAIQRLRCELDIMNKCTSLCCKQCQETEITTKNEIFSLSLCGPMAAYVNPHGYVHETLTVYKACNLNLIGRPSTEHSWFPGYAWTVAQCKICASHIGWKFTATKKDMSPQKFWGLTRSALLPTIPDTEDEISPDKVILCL
Sequence of GSPT1 (Q16531 whole entry partner): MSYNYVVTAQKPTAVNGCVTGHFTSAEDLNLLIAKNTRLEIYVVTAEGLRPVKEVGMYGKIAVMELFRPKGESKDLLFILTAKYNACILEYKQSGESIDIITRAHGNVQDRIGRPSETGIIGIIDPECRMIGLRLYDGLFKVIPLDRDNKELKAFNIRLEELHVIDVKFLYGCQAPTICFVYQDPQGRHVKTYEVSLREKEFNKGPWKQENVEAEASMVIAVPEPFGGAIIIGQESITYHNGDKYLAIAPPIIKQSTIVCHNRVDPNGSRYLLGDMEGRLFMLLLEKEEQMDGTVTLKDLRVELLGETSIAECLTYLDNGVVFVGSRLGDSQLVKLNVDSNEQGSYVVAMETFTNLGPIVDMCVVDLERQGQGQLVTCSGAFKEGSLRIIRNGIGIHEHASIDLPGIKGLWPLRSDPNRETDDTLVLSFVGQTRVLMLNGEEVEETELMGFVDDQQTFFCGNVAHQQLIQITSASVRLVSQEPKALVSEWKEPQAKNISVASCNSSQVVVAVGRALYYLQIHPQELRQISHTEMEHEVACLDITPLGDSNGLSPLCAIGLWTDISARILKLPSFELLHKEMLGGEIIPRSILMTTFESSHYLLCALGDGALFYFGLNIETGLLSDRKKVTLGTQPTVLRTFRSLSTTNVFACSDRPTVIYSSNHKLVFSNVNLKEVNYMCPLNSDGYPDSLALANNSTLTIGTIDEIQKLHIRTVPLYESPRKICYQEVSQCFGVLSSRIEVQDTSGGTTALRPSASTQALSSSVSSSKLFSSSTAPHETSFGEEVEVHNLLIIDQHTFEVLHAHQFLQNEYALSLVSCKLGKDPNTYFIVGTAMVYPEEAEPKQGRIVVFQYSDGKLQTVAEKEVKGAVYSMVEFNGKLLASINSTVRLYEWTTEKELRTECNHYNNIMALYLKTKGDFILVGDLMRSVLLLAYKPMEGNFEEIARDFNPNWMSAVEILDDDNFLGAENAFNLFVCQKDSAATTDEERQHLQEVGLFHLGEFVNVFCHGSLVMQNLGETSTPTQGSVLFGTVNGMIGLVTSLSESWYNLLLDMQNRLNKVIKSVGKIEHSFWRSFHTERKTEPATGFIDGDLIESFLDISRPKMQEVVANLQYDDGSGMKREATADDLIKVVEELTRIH

Consider `Cc1ccc(NC(=O)NCc2ccc3c(c2)C(=O)N(C2CCC(=O)NC2=O)C3)cc1Cl` (stereo not drawn) [Compound 8], for which the “anti-tumor activity (tumor volume)” value in assay [1] was “robust and dose-dependent anti-tumor activity, including regressions”.

With `Cc1ccc(NC(=O)OCc2ccc3c(c2)C(=O)N(C2CCC(=O)NC2=O)C3)cc1Cl` (stereo not drawn) [Compound 210], the “extent of GSPT1 degradation” value at GSPT1 is recorded as “Complete degradation of GSPT1”. Consider `O=C1CCC(N2Cc3ccc(COC(=O)Nc4cc(OC(F)(F)F)ccc4F)cc3C2=O)C(=O)N1` (stereo not drawn) [Compound 345, (2-(2,6-dioxopiperidin-3-yl)-3-oxoisoindolin-5-yl)methyl(2-fluoro-5-(trifluoromethoxy)phenyl)carbamate], for which the tumor volume result in assay [2] is “anti-tumor activity”.
